Reference: PubChem BioAssay (NCI)
“And” between values parts separate entries of the source, which are not always exact repeats. Identical values can stand only once.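 Five concentrations, 48 hours, 96-well plates. Here, GI50 denotes the concentration required for 50% inhibition of growth. TGI: concentration producing complete growth inhibition.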 Where a SMILES comes first, the peptide text is derived from it. Bridges are numbered along the chain shown (N, C = ends). [ ]: non-standard residue; d: D form. The star is where a group is joined. ξ: configuration not given here. X26 = O=C(/C=C/C=C/C=C/C=C/C=C/C(=O)*)NC1=C(O)CCC1=O; NMeA = CN[C@@H](C)C(=O)O; ξF = NC(Cc1ccccc1)C(=O)O; ξA = CC(N)C(=O)O

Key:
Assay in all cases: growth of human tumour cells (NCI), 48 h
SR leukemia = test system: SR leukemia
SNB-19 CNS = test system: SNB-19 CNS
T-47D breast = test system: T-47D breast
TK-10 renal = test system: TK-10 renal
OVCAR-3 ovarian = test system: OVCAR-3 ovarian
M14 melanoma = test system: M14 melanoma
A549 NSCLC = test system: A549 NSCLC
MOLT-4 leukemia = test system: MOLT-4 leukemia
LOX IMVI melanoma = test system: LOX IMVI melanoma
ACHN renal = test system: ACHN renal

Structure (SMILES) | TGI (SR leukemia) | TGI (SNB-19 CNS) | TGI (T-47D breast) | TGI (TK-10 renal) | TGI (OVCAR-3 ovarian) | TGI (M14 melanoma) | TGI (A549 NSCLC) | TGI (MOLT-4 leukemia) | TGI (LOX IMVI melanoma) | TGI (ACHN renal) | GI50 (LOX IMVI melanoma)
CSc1c(C#N)c(N)n(-c2ccc(C)cc2)c(=O)c1C#N | > 100 µM | > 100 µM | > 100 µM | > 100 µM | > 100 µM | > 100 µM | > 100 µM | > 100 µM | > 100 µM | – | –
CC12CCC3C(CCC4CC(OC(=O)Cc5ccc(N(CCCl)CCCl)cc5)CCC43C)C1CCC(=O)N2 (stereo not given) | 16.8 µM | 32.5 µM | – | 35.5 µM | 32.1 µM | 32.2 µM | 29 µM | 24.4 µM | – | 23.2 µM | –
COc1cc2nc(-c3cccs3)oc(=O)c2cc1OC | > 100 µM | > 100 µM | > 100 µM | > 100 µM | > 100 µM | > 100 µM | > 100 µM | > 100 µM | > 100 µM | > 100 µM | –
C(/C=C(\Nc1ccccc1)C12CC3CC(CC(C3)C1)C2)=Nc1ccccc1 | 30.4 µM | 33.9 µM | 99.6 µM | 45.4 µM | 21.1 µM | 32.6 µM | 73.3 µM | 22.9 µM | 28.6 µM | 26.4 µM | –
O=c1[nH]cnc2c1ncn2[C@@H]1C[C@@H]1CO | > 100 µM | > 100 µM | > 100 µM | > 100 µM | – | > 100 µM | > 100 µM | > 100 µM | > 100 µM | > 100 µM | –
Cn1ccnc1C(O)(c1nccn1C)c1nccn1C | > 100 µM | > 100 µM | – | > 100 µM | – | > 100 µM | – | – | > 100 µM | > 100 µM | –
CC(=O)O[C@H]1C(=O)[C@@]2(C)[C@H]([C@H](OC(=O)c3ccc(F)cc3)[C@]3(O)C[C@H](OC(=O)[C@H](O)[C@@H](NC(=O)c4ccccc4)c4ccccc4)C(C)=C1C3(C)C)[C@]1(OC(C)=O)CO[C@@H]1C[C@@H]2O | – | > 25 µM | > 9.63 µM | > 16.1 µM | 0.0437 µM | – | > 25 µM | 2.6 µM | 5.56 µM | > 25 µM | –
O=C1CC(C(O)(C(F)(F)F)C(F)(F)Cl)CCC1C(O)(C(F)(F)F)C(F)(F)Cl (stereo not given) | > 10 µM | > 10 µM | > 10 µM | > 10 µM | > 10 µM | > 10 µM | > 10 µM | > 10 µM | > 10 µM | > 10 µM | –
Nc1ccc(-c2nc3ccccc3s2)cc1C(F)(F)F | – | 33.2 µM | 20.6 µM | 26 µM | 30.2 µM | 28.7 µM | 37.4 µM | 52.4 µM | 32.4 µM | 28.5 µM | –
O=C(NCCCN(CCCCN(CCCNC(=O)C(F)(F)F)Cc1ccc2ccccc2c1)Cc1ccc2ccccc2c1)C(F)(F)F | 7.18 µM | – | > 100 µM | > 100 µM | > 100 µM | 4.54 µM | > 100 µM | > 100 µM | > 100 µM | > 100 µM | –
Cc1ccc(CC[P+](=O)CCc2ccc(C)nc2)cn1 | > 100 µM | > 100 µM | > 100 µM | > 100 µM | > 100 µM | > 100 µM | – | > 100 µM | > 100 µM | > 100 µM | –
O=C(Oc1cc(=O)c(OC(=O)c2ccccc2)co1)c1ccccc1 | > 100 µM | > 100 µM | > 100 µM | > 100 µM | > 100 µM | > 100 µM | > 100 µM | > 100 µM | > 100 µM | > 100 µM | –
S=C(/N=c1\sc(Nc2ccc(Cl)cc2)nc2sc3c(c12)CCN(N1CCc2c(sc4nc(Nc5ccc(Cl)cc5)s/c(=N\C(=S)Nc5ccc(Cl)cc5)c24)C1)C3)Nc1ccc(Cl)cc1 | – | > 100 µM | – | > 100 µM | > 100 µM | > 100 µM | > 100 µM | > 100 µM | – | > 100 µM | –
O=C(Cc1ccccc1)NN1C(=O)/C(=C\c2ccccc2)SC1=Nc1ccccc1 | – | > 100 µM | > 100 µM | > 100 µM | > 100 µM | > 100 µM | > 100 µM | > 100 µM | – | > 100 µM | –
CC1(C)C2CC(=O)C1(C)C(O)C2Br (stereo not given) | – | > 100 µM | > 100 µM | > 100 µM | > 100 µM | > 100 µM | > 100 µM | > 100 µM | – | > 100 µM | –
COc1c(O)c2c3c(c(C)cc(O)c3c1O)C(=O)C(O)(C(C)(C)C(C)=O)C2=O (stereo not given) | – | > 100 µM | – | > 100 µM | > 100 µM | > 100 µM | > 100 µM | > 100 µM | > 100 µM | > 100 µM | 33 µM and 67.6 µM
CC1NC(=O)[C@H](C)N(C)C(=O)[C@@H]2CCCN2C(=O)[C@@H](NC(=O)C(Cc2ccccc2)NC(=O)/C=C/C=C/C=C/C=C/C=C/C(=O)NC2=C(O)CCC2=O)COC(=O)[C@@H]2CCCN2C1=O (stereo not given in full) (X26-[ξF]SP[NMeA][ξA]P; ester 2-C) | > 100 µM | > 100 µM | > 100 µM | 92.1 µM | > 100 µM | > 100 µM | > 100 µM | – | > 100 µM | > 100 µM | –
Cc1c(N2C(=O)C(Cl)C2c2ccc(Cl)cc2)c(=O)n(-c2ccccc2)n1C (stereo not given) | > 100 µM | – | > 100 µM | > 100 µM | > 100 µM | > 100 µM | > 100 µM | > 100 µM | 91.6 µM | 83.2 µM | –
CN(Cc1ccccc1)c1cc(=O)n(C)c(=O)[nH]1 | – | > 100 µM | > 100 µM | > 100 µM | > 100 µM | > 100 µM | > 100 µM | > 100 µM | > 100 µM | > 100 µM | –
C[C@]12CC[C@@H]3c4ccc(O)cc4CC[C@H]3[C@@H]1C/C(=C\c1ccncc1)[C@@H]2O | – | > 100 µM | 13.8 µM | > 100 µM | 30.9 µM | > 100 µM | > 100 µM | 40.8 µM | – | 28.3 µM | –
CCOC(=O)c1c(-c2ccccc2)c(-c2ccccc2)cn1C | > 10 µM | > 10 µM | – | > 10 µM | > 10 µM | > 10 µM | > 10 µM | > 10 µM | – | > 10 µM | –
Clc1ccc(CSCCc2ccncc2)cc1Cl | – | 35.6 µM | > 100 µM | > 100 µM | 33.1 µM | 32.5 µM | 96.2 µM | 38.1 µM | – | 66 µM | –
